Tests used:
[1] = biological target: CYP enzymes in human liver microsomes (N-desmethylvandetanib formation) (Homo sapiens, UniProt P08684); experiment: Effects of inhibitors on N-desmethylvandetanib formation in human liver microsomes; details: human, pH 7.4
Protocol: (§1) After the incubations, 5 µL of 1 mM phenacetine (dissolved in methanol) was added as internal standard. The reaction was stopped by extraction with dichlormethane (2 × 1 mL).
(§2) Inhibition studies in human liver microsomes were essentially conducted as reported previously.

[2] = biological target: CYP enzymes in human liver microsomes (Homo sapiens, UniProt P08684); experiment: as above; details: inhibitor 50 μM equimolar to vandetanib (50 μM), 0.1 nmol microsomal CYP
Sequence of CYP enzymes in human liver microsomes (P08684 2-503): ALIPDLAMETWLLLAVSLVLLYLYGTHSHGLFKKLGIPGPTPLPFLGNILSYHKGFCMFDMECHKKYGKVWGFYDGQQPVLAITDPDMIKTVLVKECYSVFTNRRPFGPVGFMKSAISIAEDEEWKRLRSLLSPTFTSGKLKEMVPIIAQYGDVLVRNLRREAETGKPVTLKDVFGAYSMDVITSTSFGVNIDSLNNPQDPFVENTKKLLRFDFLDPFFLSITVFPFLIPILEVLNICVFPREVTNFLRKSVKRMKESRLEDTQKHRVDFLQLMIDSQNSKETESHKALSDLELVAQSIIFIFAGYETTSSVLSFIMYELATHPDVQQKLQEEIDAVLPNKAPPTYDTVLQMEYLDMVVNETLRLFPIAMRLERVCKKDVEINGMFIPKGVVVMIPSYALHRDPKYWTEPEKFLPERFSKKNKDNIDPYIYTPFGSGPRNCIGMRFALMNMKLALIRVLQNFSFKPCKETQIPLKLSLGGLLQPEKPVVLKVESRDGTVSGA
Sequence of CYP enzymes in human liver microsomes (P16435 2-677, further chain): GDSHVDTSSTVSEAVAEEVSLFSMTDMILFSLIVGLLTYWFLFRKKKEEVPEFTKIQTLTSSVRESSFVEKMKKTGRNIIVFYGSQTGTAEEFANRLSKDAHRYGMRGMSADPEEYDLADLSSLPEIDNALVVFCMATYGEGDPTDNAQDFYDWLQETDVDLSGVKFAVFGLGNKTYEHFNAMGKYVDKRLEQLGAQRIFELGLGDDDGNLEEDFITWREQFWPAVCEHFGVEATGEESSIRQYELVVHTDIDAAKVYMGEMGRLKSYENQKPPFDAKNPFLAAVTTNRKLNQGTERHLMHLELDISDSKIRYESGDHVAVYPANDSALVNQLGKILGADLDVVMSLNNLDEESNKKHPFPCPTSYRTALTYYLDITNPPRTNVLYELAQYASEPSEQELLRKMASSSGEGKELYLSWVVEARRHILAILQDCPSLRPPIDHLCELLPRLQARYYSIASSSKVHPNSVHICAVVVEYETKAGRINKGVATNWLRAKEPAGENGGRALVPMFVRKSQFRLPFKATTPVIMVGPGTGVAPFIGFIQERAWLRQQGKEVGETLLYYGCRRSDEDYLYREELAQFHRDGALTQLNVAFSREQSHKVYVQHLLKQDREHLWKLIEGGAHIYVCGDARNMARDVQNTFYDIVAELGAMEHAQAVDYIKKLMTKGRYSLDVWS
Protocol: as §1, §2

[3] = biological target: T1, FMO in human liver microsomes (Homo sapiens, UniProt P31513); experiment: Effects of inhibitors on vandetanib-N-oxide formation in human liver microsomes; assay type: in vitro ADME; details: inhibitor 50 μM equimolar to vandetanib (50 μM), 0.25 mg microsomal protein
T1 sequence (P31513 2-532): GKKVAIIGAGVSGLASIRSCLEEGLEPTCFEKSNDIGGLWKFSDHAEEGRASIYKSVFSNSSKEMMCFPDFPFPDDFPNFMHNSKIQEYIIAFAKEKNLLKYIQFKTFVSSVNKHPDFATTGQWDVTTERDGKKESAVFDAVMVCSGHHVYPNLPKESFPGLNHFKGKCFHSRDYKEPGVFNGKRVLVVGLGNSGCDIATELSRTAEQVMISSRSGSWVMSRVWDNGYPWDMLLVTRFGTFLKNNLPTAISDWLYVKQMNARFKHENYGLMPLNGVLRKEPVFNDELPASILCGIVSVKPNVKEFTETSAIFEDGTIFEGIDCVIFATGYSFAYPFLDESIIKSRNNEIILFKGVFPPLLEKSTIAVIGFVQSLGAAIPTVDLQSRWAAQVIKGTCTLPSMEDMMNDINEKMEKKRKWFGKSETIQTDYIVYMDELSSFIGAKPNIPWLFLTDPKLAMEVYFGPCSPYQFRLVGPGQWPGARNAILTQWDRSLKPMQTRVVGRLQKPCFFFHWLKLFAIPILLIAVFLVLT

Sequence of CYP enzymes in human liver microsomes (N-desmethylvandetanib formation) (P08684 2-503): as the sequence (P08684 2-503) above
Sequence of CYP enzymes in human liver microsomes (N-desmethylvandetanib formation) (P16435 2-677, further chain): as the sequence (P16435 2-677, further chain) above

SMILES	inhibition at 20 min, 50 µM [1] [%]	% of Inhibition, N-Desmethyvandetanib Formation [2]	% of Inhibition, Vandetanib-N-oxide Formation [3]	% of Inhibition, N-Desmethyvandetanib Formation ([2]; listed as diamantane)	inhibition at 20 min, 500 µM [1] [%]
CCN(CC)C(=S)S [DDTC, diethyldithiocarbamate]	0	no inhibitory effects	no inhibition	–	–
C1C2CC3C4CC5CC(C14)C(C2)C3C5 [Diamantane, diamantane]	–	0%	–	no inhibitory effects	–
Nc1ccc(S(=O)(=O)Nc2ccnn2-c2ccccc2)cc1 [Sulfaphenazole, sulfaphenazole]	38 ± 4	–	–	–	< 50

— paper PMC6679423 (International Journal of Molecular Sciences, 2019)
